Consider 35 compounds from ChEMBL document CHEMBL3352794, “Identification of potent inhibitors of the chicken soluble epoxide hydrolase” (Bioorg Med Chem Lett, 2015).

The nature of data set [1]: Inhibition of recombinant purified chicken soluble epoxide hydrolase using fluorescent PHOME as substrate. Further details: species or system Gallus gallus.
Data set [2] can be described thus: Solubility of the compound in 0.1 M sodium phosphate buffer at pH 7.4 containing 1% DMSO by turbidity method. The note with it: 0.1 M sodium phosphate buffer with 1% DMSO.
A short description of data set [3]: Stability in human liver microsomes assessed as compound remaining at 1 uM after 30 mins by mass spectrometry.
Data set [4] is described as follows: Stability in human liver microsomes assessed as compound remaining at 1 uM after 30 mins by mass spectrometry in presence of NADPH. Background: Liver microsomes are a subcellular fraction often used to study metabolism.
Data set [5] can be described thus: Stability in chicken liver microsomes assessed as compound remaining at 1 uM after 30 mins by mass spectrometry.
Data set [6] is described as follows: Stability in chicken liver microsomes assessed as compound remaining at 1 uM after 30 mins by mass spectrometry in presence of NADPH.
Data set [7] can be described thus: Inhibition of recombinant purified chicken soluble epoxide hydrolase by FRET-based competitive displacement assay in presence of ACPU. On the set-up: species or system Gallus gallus.

In brackets after ≈: the same amount, converted by molar mass. Where only a bound is given, the exact number is not on record here.

On to `CC(=O)N1CCN(CCCCOc2cccc(NC(=O)NC34CC5CC(CC(C5)C3)C4)c2)CC1`, for which the IC50 in data set [1] turned out to be 4 nM. In the case of `CC(=O)N1CCN(CCCCOc2ccc(NC(=O)NC34CC5CC(CC(C5)C3)C4)cc2)CC1`, the IC50 in data set [1] was 2.3 nM. Regarding `NS(=O)(=O)c1ccc(-n2nc(CCCNC(=O)NC3CCCCCC3)cc2-c2ccccc2)cc1`, the IC50 in data set [1] was determined as 3.3 nM.

Consider `Cc1cc(C)c(CN2CCC(C(=O)NC3CCCCCC3)CC2)c(C)c1`, for which the IC50 in data set [1] amounted to 13 nM.

Take `O=C(Nc1ccc(OCCOCCOCC(F)(F)F)cc1)NC12CC3CC(CC(C3)C1)C2`: the IC50 in data set [1] is 4.4 nM.

`C=CCO[C@H]1CC[C@@H](NC(=O)NC23CC4CC(CC(C4)C2)C3)CC1`: the IC50 in data set [1] is 1.7 nM.

Consider `CCCCCOC(=O)C1CCCC(NC(=O)NC23CC4CC(CC(C4)C2)C3)C1` (stereo not given), for which the IC50 in data set [1] is 5.7 nM. As for `O=C(O)CCCCCCCCCCCNC(=O)NC12CC3CC(CC(C3)C1)C2`, the IC50 in data set [1] came to 13 nM. The compound also displayed a solubility (kinetic) in data set [2] of 37.5 µM (≈ 14.7 µg/mL). Also, the amount remaining at 0.5 h, 1 µM in data set [3] turned out to be 98%; in data set [4] it was 69%; in data set [5] it was 106%; in data set [6] it was 70%. With `O=C(NC1CCCCCC1)N[C@H]1CC[C@@H](Oc2ccc(F)cc2)CC1`, in data set [1], the IC50 was 2.7 nM. For `Cc1ccc(S(=O)(=O)N2CCC(C(=O)NCC3CCCCC3)CC2)c(C)c1`, in data set [1], the IC50 was found to be 3 nM.

On to `CNC(=O)c1ccc(O[C@H]2CC[C@H](NC(=O)NC34CC5CC(CC(C5)C3)C4)CC2)cc1`, for which the IC50 in data set [1] turned out to be 2.4 nM. This compound also displayed a kinetic solubility in data set [2] of 50 µM (≈ 21.3 µg/mL). The amount remaining at 0.5 h, 1 µM in data set [3] is 101%; in data set [4], 94%; in data set [5], 96%; in data set [6], 96%. For the same compound, the Ki in data set [7] was less than 0.02 nM. Take `CNC(=O)c1cc(O[C@H]2CC[C@H](NC(=O)Nc3ccc(Cl)c(C(F)(F)F)c3)CC2)ccn1`: in data set [1], the IC50 is 11 nM. For `CNC(=O)c1ccc(O[C@H]2CC[C@H](NC(=O)Nc3ccc(Cl)c(C(F)(F)F)c3)CC2)cn1`, the IC50 in data set [1] came out at 5.1 nM.

Regarding `COc1ccc(O[C@H]2CC[C@@H](NC(=O)NC34CC5CC(CC(C5)C3)C4)CC2)cc1`, the amount remaining at 0.5 h, 1 µM worked out at 98% in data set [3], 57% in data set [4], 69% in data set [5] and 2.1% in data set [6]. In the case of `O=C(CCCCCCCCCCCNC(=O)NC12CC3CC(CC(C3)C1)C2)N[C@@H]1O[C@H](CO)[C@H](O)[C@@H](O)[C@H]1O`, the IC50 in data set [1] is 3.5 nM. In the case of `CCCCCOC(=O)C1CCC(NC(=O)NC23CC4CC(CC(C4)C2)C3)CC1` (stereo not given), the IC50 in data set [1] is 5.2 nM. With `CC(C)=CCO[C@H]1CC[C@@H](NC(=O)NC23CC4CC(CC(C4)C2)C3)CC1`, the IC50 in data set [1] was found to be 5.3 nM.

As for `O=C(NCCCc1ccccc1)N[C@H]1CC[C@@H](Oc2ccc(F)cc2)CC1`, the IC50 in data set [1] worked out at 3.5 nM. On to `O=C(NC1CCCCCCC1)N[C@H]1CC[C@@H](Oc2ccc(F)cc2)CC1`, for which the IC50 in data set [1] came to 5.1 nM.

Consider `O=C(Nc1ccc(C(F)(F)F)cc1)N[C@H]1CC[C@H](OCc2c(F)cccc2F)CC1`, for which, in data set [1], the IC50 is 4.4 nM.

For the compound `O=C(Nc1cccc(Cl)c1)N[C@H]1CC[C@H](OCc2c(F)cccc2F)CC1`, the IC50 in data set [1] was determined as 2 nM. The same measure, in the same setting: next, `O=C(Nc1cccc(Br)c1)N[C@H]1CC[C@H](OCc2c(F)cccc2F)CC1`: 2.4 nM; `O=C(NCCCc1ccccc1)N[C@H]1CC[C@H](OCc2c(F)cccc2F)CC1`: 1.9 nM; `CCOC(=O)C(C)OCCCCCCCCNC(=O)NC12CC3CC(CC(C3)C1)C2` (stereo not given): 4.4 nM. Take `COC(=O)c1ccc(C(=O)N2CCC(NC(=O)Nc3ccc(OC(F)(F)F)cc3)CC2)cc1`: the IC50 in data set [1] was found to be 1.4 nM. This compound showed a kinetic solubility in data set [2] of 75 µM (≈ 34.9 µg/mL). Further, the fraction remaining at 0.5 h, 1 µM in data set [3] turned out to be 1.2%; in data set [4], 2.7%; in data set [5], 105%; in data set [6], 94%.

With `O=C(NC12CC3CC(CC(C3)C1)C2)N[C@H]1CC[C@H](OCc2cc(F)cc(F)c2)CC1`, in data set [1], the IC50 came to 3.1 nM. On the same count and under the same terms, next, `CC(C)(C)OC(=O)N1CCC(NC(=O)NC23CC4CC(CC(C4)C2)C3)CC1`: 7.5 nM; `NC(=O)CCCCCCCCCCCNC(=O)NC12CC3CC(CC(C3)C1)C2`: 2.1 nM. Consider `O=C(NC12CC3CC(CC(C3)C1)C2)N[C@H]1CC[C@H](Oc2ccc(CO)cc2)CC1`, for which, in data set [1], the IC50 amounted to 1.2 nM. Further, the solubility (kinetic) in data set [2] was greater than 100 µM. Further, the fraction remaining at 0.5 h, 1 µM in data set [3] was determined as 91%; in data set [4], 53%; in data set [5], 73%; in data set [6] it was 24%. The Ki in data set [7] was less than 0.02 nM. With `N#Cc1ccc(O[C@H]2CC[C@H](NC(=O)Nc3ccc(Cl)c(C(F)(F)F)c3)CC2)cc1`, the IC50 in data set [1] came to 3.6 nM. As to `CNC(=O)c1ccc(O[C@H]2CC[C@@H](NC(=O)Nc3ccc(OC(F)(F)F)cc3)CC2)cc1`, the IC50 in data set [1] stood at 2.1 nM. Also, the kinetic solubility in data set [2] worked out at 10 µM (≈ 4.51 µg/mL). For the same compound, the amount remaining at 0.5 h, 1 µM in data set [3] was determined as 101%; in data set [4], 5.4%; in data set [5], 119%; in data set [6], 89%. Turning to `CCN(CC)C(=O)c1cc(O[C@H]2CC[C@H](NC(=O)Nc3ccc(Cl)c(C(F)(F)F)c3)CC2)ccn1`, the IC50 in data set [1] came out at 9.6 nM.

For the compound `NS(=O)(=O)c1ccc(-n2nc(CCCNC(=O)Nc3ccc(C(F)(F)F)cc3)cc2-c2ccc(F)cc2)cc1`, the IC50 in data set [1] stood at 5.7 nM.

On to `O=C(NC12CC3CC(CC(C3)C1)C2)N[C@H]1CC[C@@H](Oc2ccc(F)cc2)CC1`, for which the IC50 in data set [1] was found to be 1.2 nM.

With `O=C(NCCCCOc1ccc(F)cc1)NC12CC3CC(CC(C3)C1)C2`, in data set [1], the IC50 came to 9.6 nM.

A word on the IC50: it is the concentration that inhibits the measured activity by half. A word on the kinetic solubility: it is the concentration staying in solution when a stock, usually in DMSO, is diluted into the medium. One may read the Ki as a measure of affinity in units of concentration, obtained from inhibition or displacement.
